From ChEMBL document CHEMBL3585338, “2-Hydroxy-3,4-naphthochalcone (2H-NC) inhibits TNFα-induced tumor invasion through the downregulation of NF-κB-mediated MMP-9 gene expression” (Bioorg Med Chem Lett, 2014)
The source made the active and inactive calls.

How the values were obtained:
Type in all cases: cell-based
[1] = target: Inhibitor of NF-kappa-B kinase alpha/beta (Homo sapiens) (UniProt O14920+O15111); assay: Inhibition of TNF-alpha-induced IKKalpha/beta phosphorylation at Ser176/180 in human MDA-MB-231 cells after 20 mins by immunoblot analysis
[2] = target: Transcription factor p65 (Homo sapiens) (UniProt Q04206); assay: Inhibition of TNF-alpha-induced Rel-A nuclear translocation in human MDA-MB-231 cells assessed as decrease in Rel-A phoshorylation at Ser536 at 20 uM pretreated for 30 mins prior to TNF-alpha stimulation measured after 60 mins by immunofluorescence microscopic analysis
Sequence of Transcription factor p65 (Homo sapiens) (Q04206 whole entry): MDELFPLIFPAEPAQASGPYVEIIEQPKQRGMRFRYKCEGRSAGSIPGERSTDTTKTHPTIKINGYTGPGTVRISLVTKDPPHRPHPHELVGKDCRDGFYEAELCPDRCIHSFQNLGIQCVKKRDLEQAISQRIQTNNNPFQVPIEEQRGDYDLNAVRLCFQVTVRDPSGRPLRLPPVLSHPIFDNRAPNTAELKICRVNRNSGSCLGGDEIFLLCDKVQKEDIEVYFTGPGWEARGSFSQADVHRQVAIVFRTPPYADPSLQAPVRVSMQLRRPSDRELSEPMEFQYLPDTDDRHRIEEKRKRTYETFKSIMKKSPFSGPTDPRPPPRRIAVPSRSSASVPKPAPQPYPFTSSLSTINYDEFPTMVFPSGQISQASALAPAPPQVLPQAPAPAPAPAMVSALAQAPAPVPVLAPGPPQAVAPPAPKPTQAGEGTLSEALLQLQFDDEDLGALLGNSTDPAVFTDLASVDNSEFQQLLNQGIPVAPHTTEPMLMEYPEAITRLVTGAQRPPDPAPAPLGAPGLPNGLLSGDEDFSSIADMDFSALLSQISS

[3] = target: Transcription factor p65 (Homo sapiens) (UniProt Q04206); assay: Inhibition of TNF-alpha-induced Rel-A phosphorylation at Ser536 in human MDA-MB-231 cells after 60 mins by immunoblot analysis

Measured: inhibition

O=C(/C=C/c1ccccc1)c1ccc2ccccc2c1O
active: [1] Dose-dependent effect | [2] | [3] Dose-dependent effect
